Results taken from patent publication US9873705B2, “Vinylogous thioester compounds and methods of use” (THE TRUSTEES OF DARTMOUTH COLLEGE, priority 2015, dated 2018).

Columns and labels:
[1] = tested on: NF1 deficient cells compared to NF1 wild type cells; assay: Bafilomycin A1 dose response curve; type: cell-based; conditions: representative of two replicates
From the text: This graph is representative of two replicates.

[2] = tested on: p62 and LC3B protein expression in U87-MG cells; assay: Western blot of autophagy markers p62 and LC3B; type: cell-based, human; conditions: U87-MG, Western blot, 2 μM Y102, 50 μM HCQ
From the text: Ras dysregulated tumors depend on autophagy to remove damaged mitochondria and allow for their survival. […] LC3B I is lipidated to form LC3B II following induction of autophagy. LC3B II is recruited and subsequently integrated into the autophagosome. p62 functions as an adaptor protein in autophagy by binding to both ubiquitin-labeled damaged cargo such as protein aggregates or mitochondria and LC3B II to facilitate cargo uptake into the autophagosome. Degradation of the cargo occurs when the autophagosome fuses with the lysosome; when autophagy is inhibited with hydroxychloroquine (HCQ), a drug that prevents acidification of the lysosome, both LC3B II and p62 accumulate as derogation of the autophagosome is prevented, making them valuable markers of autophagic flux.
The data for FIG. 4 was obtained as follows: U87-MG cells were plated in 6-well plates at a concentration of 500,000 cells/well and allowed to adhere overnight. Cells were treated for 12 h with either DMSO or 2 μM Y102, followed by an additional 12 h co-treatment with or without 50 μM HCQ. Following treatment, cells were harvested using 0.25% trypsin, rinsed with PBS, and lysed with 75 μL modified RIPA buffer (50 mM NaCl, 1% v/v nonidet P40, 0.5% w/v sodium deoxycholate, 0.05% w/v sodium dodecyl sulfate, 50 mM Tris pH 8.0) containing 1 mM NaVO4, 1 mM NaF, 1 mM phenylmethylsulfonyl fluoride, 0.1 μg/mL leupeptin, 100 μM benzamidine HCl, 1 μM aprotinin, 0.1 μg/mL soybean trypsin inhibitor, 0.1 μg/mL pepstatin, and 0.1 μg/mL antipain. Protein was quantified using a BCA assay kit (Pierce). 40 μg of protein prepared in 1× Laemmli sample buffer (50 mM Tris pH 6.8, 0.02% w/v bromophenol blue, 2% w/v sodium dodecyl sulfate, 10% v/v glycerol, 1% v/v beta-mercaptoethanol, 12.5 mM EDTA) was separated on a 4-15% polyacrylamide gel using sodium dodecyl sulfate-polyacrylamide gel electrophoresis. Protein was transferred to nitrocellulose membrane, blocked in 5% nonfat milk in TBST, and probed with primary antibodies anti-LC3BI/II (Cell Signaling, 1:1000, overnight at 4° C.), anti-p62/SQSTM-1 D-3 (Santa Cruz, 1:1000, 1 h at room temperature), or anti-α-tubulin B-1-2-5 (Santa Cruz, 1:10000, 1 h at room temperature) in 2% nonfat milk in TBST. Blots were incubated in 1:20,000 anti-rabbit HRP or 1:10,000 anti-mouse HRP secondary antibodies diluted in 2% nonfat milk in TBST for 1 h at room temperature. Film was exposed to standard ECL (Pierce)-coated blots and developed using a standard film processor.

| Structure (SMILES) | sensitivity of NF1 deficient vs NF1 wild type cells [1] | p62 accumulation (autophagy marker) ([2]; 24 hours) | LC3B I/II conversion (LC3B II accumulation) ([2]; single agent) |
| --- | --- | --- | --- |
| CO/C1=C\C(C)=C\[C@@H](C)[C@@H](O)[C@@H](C)C/C(C)=C/C=C/[C@H](OC)[C@@H]([C@@H](C)[C@@H](O)[C@H](C)[C@@]2(O)C[C@@H](O)[C@H](C)[C@@H](C(C)C)O2)OC1=O [Bafilomycin A1] | selectively sensitive | – | – |
| CCN(CCO)CCCC(C)Nc1ccnc2cc(Cl)ccc12 (stereo not drawn) [HCQ, hydroxychloroquine, reference compound] | – | accumulation of p62 | LC3B I/II conversion as seen |
